Measurements published in paper PMC5746119, “Pharmacologic characterization of SHR8443, a novel dual inhibitor of phosphatidylinositol 3-kinase and mammalian target of rapamycin” (Oncotarget, 2017).
Read-outs that look alike come from different tables or passages of the source.

What was measured:
[1] = tested on: trastuzumab-resistant BT-474/trastuzumab xenografts; test: Tumor xenograft growth inhibition; assay type: in vivo, Balb/cA-nude mice
Method: (§1) Female, 5–6-wk-old Balb/cA-nude mice were purchased from Shanghai Laboratory Animal Center, Chinese Academy of Sciences (Shanghai, China). […] Tumor volume was calculated as (length × width^2)/2.

[2] = tested on: panel of human tumor cell lines; test: Cell proliferation assay (SRB), panel of human tumor cell lines; assay type: cell-based; conditions: 72 h
Method: (§2) The following human tumor cell lines were obtained from the American Type Culture Collection (Manassas, VA, USA): breast tumor cell lines, MDA-MB-231, MDA-MB-435, MDA-MB-468, BT-474 and MCF7; lung tumor cell lines, A549 and Calu-3; ovarian tumor cell lines, SK-OV-3 and OVCAR3; colon tumor cell lines, SW620 and COLO205; glioma cell line, U-87MG; prostate tumor cell line, PC-3; and melanoma cell line, A375. All cell lines were cultured according to instructions provided by the American Type Culture Collection. The ovarian tumor cell line A2780 was obtained from the National Cancer Institute (Bethesda, MD, USA) and cultured according to the instructions provided. The dabrafenib- and trametinib-resistant A375 cell lines, A375/DR and A375/TR, respectively, were established by culturing parental cells in medium containing gradually increasing concentrations of dabrafenib (0.1–5,000 nM) or trametinib (0.05–50 nM) over the course of 12 months. […] All the cells have been tested and authenticated by Genesky Biotechnologies. Inc. (Shanghai, China) using fluorescent amplified restriction fragment polymorphism (FAFLP) method.
(§3) Tumor cells were seeded in 96-well plates and treated with serial dilutions of drugs alone or as a combination of two drugs. After a 72-h incubation, cell proliferation was evaluated by sulforhodamine B (SRB; Sigma) assay. […] The CI value which defines the interaction between two drugs as synergistic (CI < 0.95), additive (CI = 0.95–1.05) or antagonistic (CI > 1.05), was determined on the basis of the median-effect principle using CalcuSyn software.

[3] = tested on: panel of other protein kinases; test: Panel of other protein kinases; assay type: biochemical; conditions: 1000 nM; data not shown
[4] = tested on: PC-3 xenografts; test: Tumor xenograft growth inhibition; assay type: in vivo, Balb/cA-nude mice; conditions: 30 mg/kg oral daily, final treatment day
Method: as §1

[5] = tested on: U-87MG xenografts; test: Tumor xenograft growth inhibition; assay type: in vivo, Balb/cA-nude mice
Method: as §1

[6] = tested on: BT-474 xenografts; test: Tumor xenograft growth inhibition; assay type: in vivo, Balb/cA-nude mice
Method: as §1

[7] = tested on: KRAS mutant A549 xenografts; test: Tumor xenograft growth inhibition; assay type: in vivo, Balb/cA-nude mice; conditions: 15 mg/kg oral daily
Method: as §1

[8] = tested on: A375/DR (dabrafenib-resistant) cells; test: Cell proliferation assay (SRB); assay type: cell-based, human; conditions: for resistance factor (RF): A375/DR versus parental A375
Method: as §2, §3

[9] = tested on: A375/TR (trametinib-resistant) cells; test: Cell proliferation assay (SRB); assay type: cell-based, human; conditions: for resistance factor (RF): A375/TR versus parental A375
Method: as §2, §3

[10] = tested on: MCF7 and MDA-MB-468 cells; test: Apoptosis by annexin V-FITC/PI staining and FACS; assay type: cell-based, human; conditions: 72 h
Method: (§4) Cells were harvested and fixed in ice-cold 70% ethanol at −20°C overnight. Fixed cells were then treated with 50 μg/mL of propidium iodide and RNase A at 37°C for 30 min. The cell cycle distribution was measured using a FACScan flow cytometer (BD Biosciences, San Jose, CA, USA) and analyzed with ModFit LT Mac V3.0 software. Apoptosis was measured using a FITC Annexin V Apoptosis Detection Kit (BD Biosciences) according to the manufacturer's instructions. Fluorescence was acquired with an Accuri C6 Plus instrument (BD Biosciences).

[11] = target: mTOR (Homo sapiens, UniProt P42345); test: mTOR kinase activity assay (K-LISA mTOR Activity Kit); assay type: biochemical; conditions: means ± SD (n = 3)
Method: (§5) PI3K enzyme-linked immunosorbent assays (ELISAs) were performed using the PI3Kinase Activity/Inhibitor Assay Kit (Millipore, Bedford, MA, USA) according to the manufacturer's instructions as described previously. mTOR kinase activity was assayed using the K-LISA mTOR Activity Kit (Calbiochem, Bedford, MA, USA) according to the manufacturer's instructions.

[12] = tested on: A375 cells; test: Cell proliferation assay (SRB); assay type: cell-based; conditions: Homo sapiens, A-375, 72 h
Method: The following human tumor cell lines were obtained from the American Type Culture Collection (Manassas, VA, USA): breast tumor cell lines, MDA-MB-231, MDA-MB-435, MDA-MB-468, BT-474 and MCF7; lung tumor cell lines, A549 and Calu-3; ovarian tumor cell lines, SK-OV-3 and OVCAR3; colon tumor cell lines, SW620 and COLO205; glioma cell line, U-87MG; prostate tumor cell line, PC-3; and melanoma cell line, A375. All cell lines were cultured according to instructions provided by the American Type Culture Collection. The ovarian tumor cell line A2780 was obtained from the National Cancer Institute (Bethesda, MD, USA) and cultured according to the instructions provided. The dabrafenib- and trametinib-resistant A375 cell lines, A375/DR and A375/TR, respectively, were established by culturing parental cells in medium containing gradually increasing concentrations of dabrafenib (0.1–5,000 nM) or trametinib (0.05–50 nM) over the course of 12 months. […]
as §3

[13] = tested on: PI3K/mTOR signaling (AKT, S6, ERK phosphorylation); test: Western blotting of PI3K/mTOR signaling in tumor cell lines; assay type: cell-based, human
Method: (§6) After drug treatment, cells were lysed in sodium dodecyl sulfate (SDS) sample buffer (100 mM Tris-HCl pH 6.8, 2% SDS, 20% glycerol, 1 mM dithiothreitol). Cell lysates containing equal amounts of protein were resolved by SDS-PAGE and transferred to polyvinylidene difluoride membranes. Blots were probed with primary antibodies, and then incubated with the appropriate secondary antibodies (Millipore). Immunoreactive bands were visualized using enhanced chemiluminescence reagents (Millipore).

[14] = tested on: MCF7, MDA-MB-468, COLO205, and A549 cell lines; test: Cell cycle distribution by flow cytometry; assay type: cell-based, human; conditions: 24 h treatment
Method: as §4

[15] = target: PI3Kβ (Homo sapiens, UniProt P42338); test: PI3K ELISA (PI3Kinase Activity/Inhibitor Assay Kit); assay type: biochemical; conditions: PI3Kβ (p110β); means ± SD (n = 3)
Method: as §5

[16] = target: PI3Kδ (Homo sapiens, UniProt O00329); test: as above; assay type: biochemical; conditions: PI3Kδ (p110δ); means ± SD (n = 3)
Method: as §5

[17] = target: PI3Kγ (Homo sapiens, UniProt P48736); test: as above; assay type: biochemical; conditions: PI3Kγ (p110γ); means ± SD (n = 3)
Method: as §5

[18] = target: PI3Kα (Homo sapiens, UniProt P42336); test: as above; assay type: biochemical; conditions: PI3Kα (p110α); means ± SD (n = 3)
Method: as §5

[19] = Pharmacokinetic study in U-87MG tumor-bearing mice; assay type: in vivo, Balb/cA-nude mice; conditions: single oral dose 10 mg/kg; for Cmax: female, Balb/cA-nude, mouse
Method: as §1
Pharmacokinetic/pharmacodynamic studies were carried out as described previously. Mice bearing U-87MG tumors received a single oral dose of 10 mg/kg SHR8443 or vehicle, and tumor tissues and blood were collected at different times. Concentrations of SHR8443 in plasma and tissue were determined by HPLC/tandem mass spectrometry. Tumor samples were analyzed by Western blotting. Animal experiments were conducted in accordance with the Institutional Animal Care and Use Committee guidelines of Shanghai Institute of Materia Medica, Chinese Academy of Sciences.

[20] = tested on: A549 cells; test: Autophagy, LC3 immunoblotting; assay type: cell-based, human; conditions: 48 h
Method: as §6

[21] = Tolerability (deaths, body weight) in xenograft-bearing mice; assay type: in vivo, Balb/cA-nude mice; conditions: xenograft-bearing mice during the course of treatment
Method: as §1

[22] = 30 mg/kg oral daily, final treatment day

Chain of PI3Kβ (P42338 whole entry): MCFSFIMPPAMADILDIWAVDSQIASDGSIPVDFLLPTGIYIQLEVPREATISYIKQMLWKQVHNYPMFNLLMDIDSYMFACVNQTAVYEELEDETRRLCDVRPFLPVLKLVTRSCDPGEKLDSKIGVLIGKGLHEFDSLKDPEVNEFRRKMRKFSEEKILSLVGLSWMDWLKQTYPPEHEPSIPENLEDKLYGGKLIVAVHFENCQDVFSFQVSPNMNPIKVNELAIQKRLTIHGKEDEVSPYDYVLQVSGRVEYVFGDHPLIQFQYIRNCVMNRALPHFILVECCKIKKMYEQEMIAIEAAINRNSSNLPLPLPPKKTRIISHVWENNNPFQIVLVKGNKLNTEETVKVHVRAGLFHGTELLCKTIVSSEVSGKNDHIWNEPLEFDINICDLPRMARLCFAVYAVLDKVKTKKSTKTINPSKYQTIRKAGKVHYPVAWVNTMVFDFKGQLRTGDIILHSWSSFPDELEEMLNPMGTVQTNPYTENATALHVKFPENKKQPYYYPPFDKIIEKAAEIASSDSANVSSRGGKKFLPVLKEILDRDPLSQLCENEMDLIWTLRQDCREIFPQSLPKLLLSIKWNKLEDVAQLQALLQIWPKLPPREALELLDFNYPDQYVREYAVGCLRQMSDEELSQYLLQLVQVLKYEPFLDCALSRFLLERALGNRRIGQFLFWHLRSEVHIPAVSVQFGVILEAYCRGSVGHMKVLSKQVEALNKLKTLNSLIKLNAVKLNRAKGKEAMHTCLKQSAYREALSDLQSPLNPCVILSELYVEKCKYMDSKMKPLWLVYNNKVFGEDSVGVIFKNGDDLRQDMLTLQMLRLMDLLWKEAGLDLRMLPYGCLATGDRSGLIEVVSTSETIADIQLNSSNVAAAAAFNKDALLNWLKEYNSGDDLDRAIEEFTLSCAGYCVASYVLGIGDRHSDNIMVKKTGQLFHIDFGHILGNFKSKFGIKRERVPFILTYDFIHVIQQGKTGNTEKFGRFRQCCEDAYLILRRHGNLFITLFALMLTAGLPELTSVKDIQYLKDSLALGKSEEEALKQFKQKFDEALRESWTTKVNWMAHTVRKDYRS
Chain of PI3Kβ (P27986 whole entry partner): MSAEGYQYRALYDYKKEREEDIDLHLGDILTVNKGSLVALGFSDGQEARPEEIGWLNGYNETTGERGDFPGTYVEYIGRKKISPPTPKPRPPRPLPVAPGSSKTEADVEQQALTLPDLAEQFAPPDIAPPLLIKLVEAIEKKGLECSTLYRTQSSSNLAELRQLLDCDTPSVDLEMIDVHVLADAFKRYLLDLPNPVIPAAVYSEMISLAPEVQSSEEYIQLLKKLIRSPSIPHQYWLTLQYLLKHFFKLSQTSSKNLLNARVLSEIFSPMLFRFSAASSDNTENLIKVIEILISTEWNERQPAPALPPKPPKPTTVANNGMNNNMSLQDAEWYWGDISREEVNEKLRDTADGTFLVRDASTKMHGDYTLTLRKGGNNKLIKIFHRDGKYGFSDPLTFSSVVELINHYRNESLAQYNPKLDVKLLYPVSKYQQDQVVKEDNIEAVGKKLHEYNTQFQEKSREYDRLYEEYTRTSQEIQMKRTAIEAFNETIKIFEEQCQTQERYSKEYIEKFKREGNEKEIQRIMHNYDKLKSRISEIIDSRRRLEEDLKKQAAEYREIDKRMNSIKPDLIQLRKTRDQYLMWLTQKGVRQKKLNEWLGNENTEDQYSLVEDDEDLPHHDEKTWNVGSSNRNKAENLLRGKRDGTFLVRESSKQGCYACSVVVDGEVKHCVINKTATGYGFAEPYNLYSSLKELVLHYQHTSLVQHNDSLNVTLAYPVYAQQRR
Chain of PI3Kα (P42336 whole entry): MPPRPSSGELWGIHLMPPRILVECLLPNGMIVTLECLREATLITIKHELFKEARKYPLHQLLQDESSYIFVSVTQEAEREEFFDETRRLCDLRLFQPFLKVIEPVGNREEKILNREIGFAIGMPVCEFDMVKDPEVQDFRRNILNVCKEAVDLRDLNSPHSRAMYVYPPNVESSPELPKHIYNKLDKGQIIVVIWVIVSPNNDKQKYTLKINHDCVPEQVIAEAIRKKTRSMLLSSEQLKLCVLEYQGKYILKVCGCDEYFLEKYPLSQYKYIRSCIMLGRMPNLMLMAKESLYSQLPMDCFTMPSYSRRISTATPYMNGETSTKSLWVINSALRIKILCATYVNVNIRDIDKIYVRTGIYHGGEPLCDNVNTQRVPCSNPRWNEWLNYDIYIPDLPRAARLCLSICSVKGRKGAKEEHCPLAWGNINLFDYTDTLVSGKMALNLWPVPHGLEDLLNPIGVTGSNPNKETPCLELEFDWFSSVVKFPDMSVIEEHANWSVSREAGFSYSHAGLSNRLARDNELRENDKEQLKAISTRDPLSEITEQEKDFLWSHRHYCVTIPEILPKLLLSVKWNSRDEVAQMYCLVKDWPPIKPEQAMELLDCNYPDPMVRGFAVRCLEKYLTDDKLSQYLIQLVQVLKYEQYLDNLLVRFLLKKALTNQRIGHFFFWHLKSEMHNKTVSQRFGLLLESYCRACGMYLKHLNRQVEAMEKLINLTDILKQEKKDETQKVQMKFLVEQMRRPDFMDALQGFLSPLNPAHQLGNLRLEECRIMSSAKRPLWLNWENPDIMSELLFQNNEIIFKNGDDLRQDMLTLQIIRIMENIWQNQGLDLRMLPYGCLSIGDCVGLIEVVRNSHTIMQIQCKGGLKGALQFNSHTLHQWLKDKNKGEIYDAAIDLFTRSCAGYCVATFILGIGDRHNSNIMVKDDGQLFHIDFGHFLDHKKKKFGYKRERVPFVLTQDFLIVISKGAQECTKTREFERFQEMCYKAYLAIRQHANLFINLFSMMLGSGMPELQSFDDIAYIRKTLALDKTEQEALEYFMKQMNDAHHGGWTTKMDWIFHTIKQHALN
Chain of PI3Kα (P27986 whole entry partner): as the sequence (P27986 whole entry partner) above
Chain of PI3Kδ (O00329 whole entry): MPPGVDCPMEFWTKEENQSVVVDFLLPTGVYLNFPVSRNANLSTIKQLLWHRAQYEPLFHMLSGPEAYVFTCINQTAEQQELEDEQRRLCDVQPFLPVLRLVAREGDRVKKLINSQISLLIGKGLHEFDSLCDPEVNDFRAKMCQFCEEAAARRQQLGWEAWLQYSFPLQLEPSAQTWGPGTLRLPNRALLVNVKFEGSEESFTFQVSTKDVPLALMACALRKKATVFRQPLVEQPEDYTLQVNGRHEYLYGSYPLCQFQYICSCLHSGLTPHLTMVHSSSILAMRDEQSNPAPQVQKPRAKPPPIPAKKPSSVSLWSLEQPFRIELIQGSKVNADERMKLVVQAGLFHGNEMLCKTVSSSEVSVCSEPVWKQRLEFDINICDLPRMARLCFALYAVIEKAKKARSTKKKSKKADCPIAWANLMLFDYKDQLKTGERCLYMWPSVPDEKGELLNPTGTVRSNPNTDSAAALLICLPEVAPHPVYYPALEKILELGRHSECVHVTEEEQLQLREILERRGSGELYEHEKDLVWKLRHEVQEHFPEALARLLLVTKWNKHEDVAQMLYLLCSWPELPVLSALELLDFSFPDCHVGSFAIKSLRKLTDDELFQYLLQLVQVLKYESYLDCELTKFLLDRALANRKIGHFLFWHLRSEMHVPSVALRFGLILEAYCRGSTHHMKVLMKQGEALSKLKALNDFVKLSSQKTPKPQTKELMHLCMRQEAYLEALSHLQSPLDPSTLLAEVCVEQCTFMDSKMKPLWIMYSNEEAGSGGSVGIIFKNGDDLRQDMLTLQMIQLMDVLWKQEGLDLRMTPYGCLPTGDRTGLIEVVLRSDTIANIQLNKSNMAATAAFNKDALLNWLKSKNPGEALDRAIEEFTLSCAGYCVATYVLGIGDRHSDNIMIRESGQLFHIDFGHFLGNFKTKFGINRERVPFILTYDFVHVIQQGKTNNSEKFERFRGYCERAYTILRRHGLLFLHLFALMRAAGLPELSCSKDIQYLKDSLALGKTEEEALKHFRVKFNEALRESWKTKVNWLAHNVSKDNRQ
Chain of PI3Kδ (P27986 whole entry partner): as the sequence (P27986 whole entry partner) above
Chain of PI3Kγ (P48736 whole entry): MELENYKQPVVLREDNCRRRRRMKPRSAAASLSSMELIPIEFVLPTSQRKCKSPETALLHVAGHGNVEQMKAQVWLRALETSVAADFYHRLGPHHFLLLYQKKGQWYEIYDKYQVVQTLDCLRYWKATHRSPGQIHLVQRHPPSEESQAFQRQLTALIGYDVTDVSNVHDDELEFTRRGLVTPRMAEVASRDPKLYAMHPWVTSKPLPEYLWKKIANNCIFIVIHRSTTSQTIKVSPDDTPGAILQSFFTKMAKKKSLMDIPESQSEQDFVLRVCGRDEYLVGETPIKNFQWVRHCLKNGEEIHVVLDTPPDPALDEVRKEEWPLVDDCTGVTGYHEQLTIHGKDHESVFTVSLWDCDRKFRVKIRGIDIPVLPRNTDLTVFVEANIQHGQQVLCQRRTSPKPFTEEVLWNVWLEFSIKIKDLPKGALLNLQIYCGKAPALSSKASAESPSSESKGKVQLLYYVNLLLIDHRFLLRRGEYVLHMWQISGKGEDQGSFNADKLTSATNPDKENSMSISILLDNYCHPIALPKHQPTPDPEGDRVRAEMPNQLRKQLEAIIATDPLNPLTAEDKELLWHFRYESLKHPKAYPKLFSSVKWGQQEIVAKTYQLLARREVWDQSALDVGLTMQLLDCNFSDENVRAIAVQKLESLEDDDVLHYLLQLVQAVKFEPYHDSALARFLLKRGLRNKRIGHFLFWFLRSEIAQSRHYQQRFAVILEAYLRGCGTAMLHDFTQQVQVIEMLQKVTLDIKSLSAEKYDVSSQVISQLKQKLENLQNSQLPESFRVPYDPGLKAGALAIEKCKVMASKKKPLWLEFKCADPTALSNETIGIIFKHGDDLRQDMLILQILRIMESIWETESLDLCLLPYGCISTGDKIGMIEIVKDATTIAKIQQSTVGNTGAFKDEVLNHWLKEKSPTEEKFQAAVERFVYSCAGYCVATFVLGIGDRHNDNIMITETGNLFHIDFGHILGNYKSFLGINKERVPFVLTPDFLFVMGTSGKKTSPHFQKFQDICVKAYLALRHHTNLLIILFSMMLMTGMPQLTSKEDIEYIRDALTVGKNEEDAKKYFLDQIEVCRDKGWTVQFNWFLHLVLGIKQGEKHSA

Cn1c(=O)n(-c2ccc(C(C)(C)C#N)cc2)c2c3cc(-c4cnc5ccccc5c4)ccc3ncc21 [BEZ235, reference compound]
tumor growth inhibition (TGI) ([1]; 60 mg/kg oral daily): 39%

CNC(=O)Nc1ccc(-c2ccc3ncc4c(c3c2)n(-c2cccc(C(F)(F)F)c2)c(=O)n4C)cn1 [SHR8443, 1-methyl-3-(5-(3-methyl-2-oxo-1-(3-(trifluoromethyl)phenyl)-2,3-dihydro-1H–imidazo [4,5-c]quinolin-8-yl)pyridin-2-yl) urea]
IC50 ([2]; read-out: IC50 values, proliferation, range over all tested tumor cells): 2.9 to 13.9 nM
IC50 ([2]; read-out: average (mean) IC50, proliferation, all tested tumor cells): 7.5 nM
IC50 ([2]; read-out: mean IC50 in KRAS/BRAF mutant tumor cells): 7.3 nM
inhibitory activity against a panel of other protein kinases [3]: little inhibitory activity
tumor growth inhibition (TGI) [4]: 75%
tumor regression ([5]; 30 mg/kg): one of six tumors
tumor growth inhibition (TGI) [5, 22]: 95%
tumor growth inhibition (TGI) ([1]; 30 mg/kg oral daily): 79%
tumor regression ([6]; 30 mg/kg): one of six tumors
tumor growth inhibition (TGI) [6, 22]: 87%
tumor growth inhibition (TGI) [7]: 86%
IC50 ([8]; Homo sapiens, A-375, A375/DR cells, 72 h, SRB assay): 3.4 nM
IC50 ([9]; Homo sapiens, A-375, A375/TR cells, 72 h, SRB assay): 4.9 nM
necrotic/apoptotic cell death [10]: concentration-dependent increase
IC50 [11]: 7.8 ± 1.1 nM
IC50 [12]: 4.1 nM
phosphorylation of AKT and S6 ([13]; COLO205 (BRAF mutant), A549 and SW620 (KRAS mutant) cells, 3 h): significantly inhibited
level of phosphorylated ERK (pERK) ([13]; COLO205, A549, SW620 cells): No change
AKT and S6 phosphorylation ([13]; MCF7, MDA-MB-468, BT-474 breast cancer cells, 3 h): inhibited
reversibility of inhibitory activity after removal from medium ([13]; MDA-MB-468 cells, 100 nM for 2 h then drug-free medium): reversible
duration of inhibition of AKT, S6K and S6 phosphorylation ([13]; U-87MG cells, 100 nM): at least 48 h
cell cycle effect [14]: concentration-dependent G1-phase cell-cycle arrest
IC50 [15]: 15.8 ± 3.8 nM
IC50 [16]: 0.7 ± 0.2 nM
IC50 [17]: 0.2 ± 0.2 nM
IC50 [18]: 0.1 nM
Cmax ([19]; plasma, read-out: Cmax in plasma): 735 ng/mL
Cmax ([19]; tumor tissue, read-out: Cmax in tumor tissue): 181 ng/g
time of Cmax (plasma and tumor tissue) [19]: 8 h
LC3-II production (autophagy) [20]: increased the production of LC3-II in a concentration-dependent manner
tolerability (drug-related deaths, body weight loss) [21]: well tolerated

CC(C)(C)c1nc(-c2cccc(NS(=O)(=O)c3c(F)cccc3F)c2F)c(-c2ccnc(N)n2)s1 [dabrafenib]
resistance factor (RF) [8]: 839.2
resistance factor (RF) [9]: 61.0

CC(=O)Nc1cccc(-n2c(=O)n(C3CC3)c(=O)c3c(Nc4ccc(I)cc4F)n(C)c(=O)c(C)c32)c1 [trametinib]
resistance factor (RF) [8]: 45.1
resistance factor (RF) [9]: 39.8
